Active and inactive are the calls of the source. The rule behind the calls is not given here.
What was measured:
[1] = molecular target: Estrogen receptor (Rattus norvegicus) (UniProt P06211+Q62986); assay: Binding affinity for rat uterine estrogen receptor relative to estradiol; format: protein assay
[2] = molecular target: T1, Estrogen receptor (Mus musculus) (UniProt O08537+P19785)
Description: Anti-uterotropic effect as inhibition of 0.06 ug/injection estrone-induced uterine weight gain in mice at 10 ug/injection dose; No

[3] = molecular target: T1, Estrogen receptor (Mus musculus); assay: Uterotrophic effect in mice at 10 ug/injection dose; No; format: functional, tissue-based; settings: Uterus
[4] = molecular target: T1, Estrogen receptor (Mus musculus); assay: Anti-uterotropic effect as inhibition of 0.06 ug/injection estrone-induced uterine weight gain in mice at 10 ug/injection dose; Yes; format: functional

T1 sequence (O08537 whole entry, looked up): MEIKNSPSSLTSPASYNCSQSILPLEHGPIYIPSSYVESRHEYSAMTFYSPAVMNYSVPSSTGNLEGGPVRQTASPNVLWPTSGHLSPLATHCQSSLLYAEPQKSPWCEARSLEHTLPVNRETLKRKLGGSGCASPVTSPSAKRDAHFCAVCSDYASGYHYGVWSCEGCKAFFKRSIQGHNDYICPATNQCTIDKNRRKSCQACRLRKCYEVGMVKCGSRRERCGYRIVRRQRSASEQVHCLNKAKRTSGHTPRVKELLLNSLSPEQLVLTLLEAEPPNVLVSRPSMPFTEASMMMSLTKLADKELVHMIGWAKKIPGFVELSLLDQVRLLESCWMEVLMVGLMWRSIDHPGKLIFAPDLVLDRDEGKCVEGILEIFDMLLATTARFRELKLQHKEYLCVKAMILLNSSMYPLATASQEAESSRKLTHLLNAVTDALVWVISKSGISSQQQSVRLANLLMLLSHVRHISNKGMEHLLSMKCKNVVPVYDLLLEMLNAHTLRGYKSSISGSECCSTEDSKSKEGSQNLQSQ
T1 sequence (P19785 whole entry, looked up): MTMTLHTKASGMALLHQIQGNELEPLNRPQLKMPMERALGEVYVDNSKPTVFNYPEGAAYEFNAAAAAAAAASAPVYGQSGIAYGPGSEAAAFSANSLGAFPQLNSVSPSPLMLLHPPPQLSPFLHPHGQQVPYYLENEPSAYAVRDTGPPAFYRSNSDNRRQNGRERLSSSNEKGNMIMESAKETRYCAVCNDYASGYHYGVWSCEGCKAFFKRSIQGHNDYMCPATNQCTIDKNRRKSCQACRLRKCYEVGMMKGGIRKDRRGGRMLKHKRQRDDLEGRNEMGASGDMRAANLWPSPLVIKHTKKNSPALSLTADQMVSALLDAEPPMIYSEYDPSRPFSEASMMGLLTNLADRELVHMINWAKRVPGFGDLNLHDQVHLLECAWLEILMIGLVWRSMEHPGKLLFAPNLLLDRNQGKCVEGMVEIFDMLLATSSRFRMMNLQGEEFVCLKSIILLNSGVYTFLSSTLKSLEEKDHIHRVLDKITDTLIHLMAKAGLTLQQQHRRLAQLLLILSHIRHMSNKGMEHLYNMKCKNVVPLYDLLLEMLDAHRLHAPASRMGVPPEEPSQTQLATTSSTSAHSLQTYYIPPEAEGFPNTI

RBA [1] [%]	Antiuterotrophic activity [2]	Uterotrophic activity [3]	Compound	Antiuterotrophic activity [4]
0.05	inactive	inactive	CCCCN(C)C(=O)CCCCCCCCCC[C@H]1C[C@H](O)[C@@]2(C)CC[C@@H]3c4ccc(O)cc4CC[C@H]3[C@H]12	–
< 0.001	–	–	CCCCN(C)C(=O)CCCCCCCCCC[C@@H]1C[C@H](O)[C@@]2(C)CC[C@@H]3c4ccc(O)cc4CC[C@H]3[C@H]12	–
0.001	inactive	inactive	CCCCN(C)C(=O)CCCCCCCCCCC1C[C@H](O)[C@@]2(C)CC[C@@H]3c4ccc(O)cc4CC[C@H]3[C@H]12 (some centres not stated)	–

Second part, the compound before the results:

Compound	RBA [1] [%]	Antiuterotrophic activity [2]	Uterotrophic activity [3]	Antiuterotrophic activity [4]
CCCCN(C)C(=O)CCCCCCCCCCCC[C@H]1C[C@H](O)[C@@]2(C)CC[C@@H]3c4ccc(O)cc4CC[C@H]3[C@H]12	< 0.001	inactive	inactive	–
CCCCN(C)C(=O)CCCCCCCCCC[C@@H]1Cc2cc(O)ccc2[C@H]2CC[C@]3(C)[C@@H](O)CC[C@H]3[C@H]12	1.2	–	inactive	inactive
CCCCN(C)C(=O)CCCCCCCCCCCC[C@@H]1C[C@H](O)[C@@]2(C)CC[C@@H]3c4ccc(O)cc4CC[C@H]3[C@H]12	< 0.001	inactive	inactive	–
CCCCN(C)C(=O)CCCCCCCCCC[C@]1(O)CC[C@H]2[C@@H]3CCc4cc(O)ccc4[C@H]3CC[C@@]21C	0.01	inactive	inactive	–
CCCCN(C)C(=O)CCCCCCCCC1C[C@H](O)[C@@]2(C)CC[C@@H]3c4ccc(O)cc4CC[C@H]3[C@H]12 (some centres not stated)	< 0.001	inactive	inactive	–

From ChEMBL document CHEMBL1129085
